Values quoted from earlier work as cited in patent publication US20020172713A1, “Micron sized bicarbonate particles and slurrys containing the same” (Church & Dwight, Co., Inc., priority 2001, published 2002).
Where two headings read alike, the source gives them in different places.

Settings: prior art particles, dilution of about 70% by weight slurry with additional water

O=C([O-])O.[Na+] [sodium bicarbonate]
alkali metal bicarbonate particles dissolved in dilution (10° C.): 7% | alkali metal bicarbonate particles dissolved in dilution (22° C.): 8.5%
